Measurements from patent US20200054651A1, “COMPOSITIONS AND METHODS FOR MODULATING PPP2R1A” (The Regents of the University of California, priority 2017, published 2020).

What was measured:
[1] = system: 231MFP breast cancer cells; assay: 231MFP cell proliferation (Hoechst staining); format: cell-based; details: 48 h; for cell proliferation: 231MFP
[2] = target: T1, C377 of PPP2R1A (Homo sapiens, UniProt P30153); assay: isoTOP-ABPP after in situ treatment of 231MFP cells; format: binding; details: 4 h in 231MFP cells in situ, IAyne labeling ex situ
T1 construct: pre-incubating withaferin A (10 μM) for 30 min in 231MFP breast cancer cell proteomes; endogenous in cells; host or cells: 231MFP breast cancer cells (MDA-MB-231 derived)
Method: IsoTOP-ABPP studies were performed using the methods described in “Nature 534(7608), 570-574 (2016)” by Backus K. M., et al. and “Nature 468(7325), 790-795 (2010)” by Weerapana E., et al. […] Then, IAyne (iodoacetamide-alkyne) labeling was performed for 1 hour at room temperature. CuAAC was used by sequential addition of tris(2-carboxyethyl)phosphine (1 mM), tris[(1-benzyl-1H-1,2,3-triazol-4-yl)methyl]amine (34 μM), copper (II) sulfate (1 mM), and biotin-linker-azide where the linker was functionalized with a TEV protease recognition sequence along with an isotopically light or heavy valine for treatment of control or treated proteome, respectively. After click reactions, proteomes were precipitated by centrifugation at 6500×g, washed in ice-cold methanol, combined in a 1:1 control/treated ratio, washed again, then denatured and re-solubilized by heating in 1.2% SDS/PBS to 80° C. for 5 minutes. Insoluble components were precipitated by centrifugation at 6500×g and soluble proteome was diluted in 0.2% SDS/PBS (5 ml). Labeled proteins were bound to avidin-agarose beads (170 μl re-suspended beads/sample) while rotating overnight at 4° C. Bead-linked proteins were enriched by washing three times each in PBS and water, then re-suspended in urea/PBS (6 M), reduced in TCEP (1 mM), alkylated with iodoacetamide (18 mM), then washed and re-suspended in urea/PBS (2 M), and finally trypsinized overnight with 0.5 μg/μl sequencing grade trypsin. Tryptic peptides were eluted off. Beads were washed in PBS (3 times) and water (3 times), washed in TEV buffer solution (water, TEV buffer, 100 μM dithiothreitol), and re-suspended in buffer with Ac-TEV protease and then incubated overnight. Peptides were diluted in water, acidified with formic acid (1.2 M), and prepared for analysis.
Peptides from all proteomic experiments were pressure-loaded onto an Agilent 600 series RP-HPLC system equipped with a capillary tubing (250 mm) packed with Aqua C18 reverse-phase resin (4 cm). The system was previously equilibrated with a gradient (0% B to 100% B over 10 minutes, 100% B for 5 minutes, then 0% B for 5 minutes; buffer A: 95:5 water:acetonitrile, 0.1% formic acid; buffer B: 80:20 acetonitrile:water, 0.1% formic acid). The samples were then attached using a MicroTee PEEK 360 μm fitting to a laser pulled column (13 cm) packed with Aqua C18 reverse-phase resin (10 cm) and strong-cation exchange resin (3 cm) for isoTOP-ABPP studies. Samples were analyzed using an Q Exactive Plus mass spectrometer using a 5-step Multidimensional Protein Identification Technology (MudPIT) program. The system was run using a gradient (5% B to 55% B; buffer A: 95:5 water:acetonitrile, 0.1% formic acid; buffer B: 80:20 acetonitrile:water, 0.1% formic acid), along with a salt bump feeding aqueous ammonium acetate (500 mM) at an increment of 0%, 25%, 50%, 80%, to 100%. Data was collected in data-dependent acquisition mode with dynamic exclusion enabled (60 sec). One full MS scan (400-1800 m/z) (MS1 scan) was conducted, followed by MS2 scan (ITMS) (15 times) of the most abundant ions. Heated capillary temperature was set to 200° C. and the nanospray voltage was set to 2.75 kV.
Data was extracted in the form of MS1 and MS2 files using Raw Extractor 1.9.9.2 and searched against the Uniprot […] database using ProLuCID search methodology in IP2 v.3, described in “J Proteomics 129:16-24 (2015)” by Xu T, et al. Cysteine residues were searched with a static modification for carboxyaminomethylation (+m/z 57.02146), up to two differential modifications for methionine oxidation, and either the light or heavy TEV tags (+m/z 464.28596 or +m/z 470.29977, respectively). Peptides were required to have at least one tryptic end and to contain the TEV modification. ProLUCID data was filtered through DTASelect to achieve a peptide false-positive rate below 1%. […]

[3] = system: cysteines profiled in 231MFP cells; assay: isoTOP-ABPP proteome-wide selectivity; format: binding; details: 100 μM, out of >1000 cysteines profiled
Method: IsoTOP-ABPP studies were performed using the methods described in “Nature 534(7608), 570-574 (2016)” by Backus K. M., et al. and “Nature 468(7325), 790-795 (2010)” by Weerapana E., et al. Proteome samples diluted in PBS were treated with Withaferin A or vehicle for 30 minutes at 37° C. Then, IAyne (iodoacetamide-alkyne) labeling was performed for 1 hour at room temperature. CuAAC was used by sequential addition of tris(2-carboxyethyl)phosphine (1 mM), tris[(1-benzyl-1H-1,2,3-triazol-4-yl)methyl]amine (34 μM), copper (II) sulfate (1 mM), and biotin-linker-azide where the linker was functionalized with a TEV protease recognition sequence along with an isotopically light or heavy valine for treatment of control or treated proteome, respectively. After click reactions, proteomes were precipitated by centrifugation at 6500×g, washed in ice-cold methanol, combined in a 1:1 control/treated ratio, washed again, then denatured and re-solubilized by heating in 1.2% SDS/PBS to 80° C. for 5 minutes. […]
Peptides from all proteomic experiments were pressure-loaded onto an Agilent 600 series RP-HPLC system equipped with a capillary tubing (250 mm) packed with Aqua C18 reverse-phase resin (4 cm). […] Samples were analyzed using an Q Exactive Plus mass spectrometer using a 5-step Multidimensional Protein Identification Technology (MudPIT) program. […]

T1 sequence (P30153 whole entry): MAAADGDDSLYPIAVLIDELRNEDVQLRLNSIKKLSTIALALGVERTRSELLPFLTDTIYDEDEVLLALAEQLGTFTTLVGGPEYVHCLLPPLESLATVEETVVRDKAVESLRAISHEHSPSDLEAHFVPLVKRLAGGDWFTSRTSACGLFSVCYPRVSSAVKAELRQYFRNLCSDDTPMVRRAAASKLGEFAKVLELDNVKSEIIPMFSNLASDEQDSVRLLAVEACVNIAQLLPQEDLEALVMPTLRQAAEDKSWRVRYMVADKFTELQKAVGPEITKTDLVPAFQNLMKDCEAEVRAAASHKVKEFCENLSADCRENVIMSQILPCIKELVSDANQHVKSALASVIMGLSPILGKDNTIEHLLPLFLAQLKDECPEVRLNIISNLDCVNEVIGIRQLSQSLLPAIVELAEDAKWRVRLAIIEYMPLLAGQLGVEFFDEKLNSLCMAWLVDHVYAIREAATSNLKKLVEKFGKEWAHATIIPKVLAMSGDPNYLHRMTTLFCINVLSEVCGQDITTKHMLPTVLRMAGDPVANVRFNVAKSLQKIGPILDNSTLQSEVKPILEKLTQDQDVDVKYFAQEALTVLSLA

O=C(CCl)Nc1ccc2c(c1)OCCO2 [DKM 2-90, 2-Chloro-N-(2,3-dihydrobenzo[β][1,4]dioxin-6-yl)acetamide]
cell proliferation ([1]; 100 μM): lead compounds
isotopically light to heavy ratio, C377 of PPP2R1A ([2]; 100 μM): 5.9
total sites showing >5 light to heavy ratio [3]: 5

O=C(CCl)N(Cc1ccccc1)c1ccc2c(c1)OCCO2 [JNS 1-40, N-benzyl-2-chloro-N-(2,3-dihydrobenzo[b][1,4]dioxin-6-yl)acetamide]
cell proliferation ([1]; 100 μM): impaired
isotopically light to heavy ratio, C377 of PPP2R1A ([2]; 100 μM): > 5
total sites showing >5 light to heavy ratio [3]: only target

CC1=C(CO)C(=O)O[C@@H]([C@@H](C)[C@H]2CC[C@H]3[C@@H]4C[C@H]5O[C@]56[C@@H](O)C=CC(=O)[C@]6(C)[C@H]4CC[C@]23C)C1 [withaferin A, reference compound]
cell proliferation ([1]; 10 μM): impairs
EC50 ([1]; serum-containing media, Hoechst staining, read-out: 50% effective concentration (EC50), impairment of 231MFP cell proliferation): 7.5 µM
isotopically light to heavy ratio, C377 of PPP2R1A ([2]; 10 μM): 4.0
